The target in the assay is FXR (Homo sapiens (Human), UniProt Q96RI1). Put plainly: FXR EC50 (FXR agonist potency reported with each Example). Format: cell-based.
Chain of FXR (Q96RI1 262-486): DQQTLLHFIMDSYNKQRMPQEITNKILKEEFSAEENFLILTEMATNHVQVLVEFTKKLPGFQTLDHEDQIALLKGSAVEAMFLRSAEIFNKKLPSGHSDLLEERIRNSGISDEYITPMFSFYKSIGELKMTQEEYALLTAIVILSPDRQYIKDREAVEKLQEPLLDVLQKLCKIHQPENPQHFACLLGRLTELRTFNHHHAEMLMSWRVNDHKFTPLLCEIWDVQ
Usually EC50 stands for the concentration giving half of the maximal effect. A higher EC50 goes with lower potency in that assay. With `CO[C@H]1C[C@@H](C(=O)N(CC23CCC(c4nc(C(C)(C)C)no4)(CC2)CC3)c2cccc(-c3nc(C4CC4)no3)c2)C1` [Example 192, (1S,3S)—N-((4-(3-(tert-butyl)-1,2,4-oxadiazol-5-yl)bicyclo[2.2.2]octan-1-yl)methyl)-N-(3-(3-cyclopropyl-1,2,4-oxadiazol-5-yl)phenyl)-3-methoxycyclobutane-1-carboxamide], a half-maximal response (EC50) required 449 nM.
The same measure for `Cc1cnc(C23CCC(CN(c4cccc(-c5nc(C(F)F)co5)c4)C(=O)[C@H]4C[C@](O)(C(F)(F)F)C4)(CC2)CC3)o1` [Example 46, (cis)-N-(3-(4-(difluoromethyl)oxazol-2-yl)phenyl)-3-hydroxy-N-((4-(5-methyloxazol-2-yl)bicyclo[2.2.2]octan-1-yl)methyl)-3-(trifluoromethyl)cyclobutane-1-carboxamide]: 437 nM; for `CCOc1ccnc(-c2cccc(N(CC34CCC(c5nc(C6CC6)no5)(CC3)CC4)C(=O)C34CC(F)(C3)C4)c2)c1` [Example 225, N-((4-(3-cyclopropyl-1,2,4-oxadiazol-5-yl)bicyclo[2.2.2]octan-1-yl)methyl)-N-(3-(4-ethoxypyridin-2-yl)phenyl)-3-fluorobicyclo[1.1.1]pentane-1-carboxamide]: 241 nM.
`CC(C)(C)c1noc(C23CCC(CN(C(=O)C45CC(F)(C4)C5)c4cccc(-c5nnc(C6CC6)o5)c4)(CC2)CC3)n1` [Example 153, N-((4-(3-(tert-butyl)-1,2,4-oxadiazol-5-yl)bicyclo[2.2.2]octan-1-yl)methyl)-N-(3-(5-cyclopropyl-1,3,4-oxadiazol-2-yl)phenyl)-3-fluorobicyclo[1.1.1]pentane-1-carboxamide] returned a concentration for a half-maximal effect (EC50) of 73 nM.
The same measure for `CC(C)(C)c1noc(C23CCC(CN(C(=O)C45CC(F)(C4)C5)c4cccc(-c5noc(C6(C)CC6)n5)c4)(CC2)CC3)n1` [Example 176, N-((4-(3-(tert-butyl)-1,2,4-oxadiazol-5-yl)bicyclo[2.2.2]octan-1-yl)methyl)-3-fluoro-N-(3-(5-(1-methylcyclopropyl)-1,2,4-oxadiazol-3-yl)phenyl)bicyclo[1.1.1]pentane-1-carboxamide]: 24 nM; for `O=C(N(CC12CCC(c3nc(C4CC4)no3)(CC1)CC2)c1cccc(-c2nnc(C3CC3)o2)c1)C12CC(F)(C1)C2` [Example 86, N-((4-(3-cyclopropyl-1,2,4-oxadiazol-5-yl)bicyclo[2.2.2]octan-1-yl)methyl)-N-(3-(5-cyclopropyl-1,3,4-oxadiazol-2-yl)phenyl)-3-fluorobicyclo[1.1.1]pentane-1-carboxamide]: 123 nM; for `O=C(N(CC12CCC(c3cnc(C(F)(F)F)nc3)(CC1)OC2)c1cccc(-c2noc(C(F)F)n2)c1)C12CC(F)(C1)C2` [Example 182, N-(3-(5-(difluoromethyl)-1,2,4-oxadiazol-3-yl)phenyl)-3-fluoro-N-((1-(2-(trifluoromethyl)pyrimidin-5-yl)-2-oxabicyclo[2.2.2]octan-4-yl)methyl) bicyclo[1.1.1]pentane-1-carboxamide]: 2000 nM.
As to `CC(C)c1noc(C23CCC(CN(C(=O)C45CC(F)(C4)C5)c4cccc(-c5noc(C6(C)CC6)n5)c4)(CC2)CC3)n1` [Example 175, 3-fluoro-N-((4-(3-isopropyl-1,2,4-oxadiazol-5-yl)bicyclo[2.2.2]octan-1-yl)methyl)-N-(3-(5-(1-methylcyclopropyl)-1,2,4-oxadiazol-3-yl)phenyl)bicyclo[1.1.1]pentane-1-carboxamide], the EC50 amounted to 54 nM.
The same measure for `O=C(N(CC12CCC(c3noc(C4(C(F)(F)F)CC4)n3)(CC1)CC2)c1cccc(-c2cn[nH]c2)c1)C12CC(F)(C1)C2` [Example 209, N-(3-(1H-pyrazol-4-yl)phenyl)-3-fluoro-N-((4-(5-(1-(trifluoromethyl)cyclopropyl)-1,2,4-oxadiazol-3-yl)bicyclo[2.2.2]octan-1-yl)methyl)bicyclo[1.1.1]pentane-1-carboxamide]: 152 nM; for `CCOc1cc(-c2cccc(N(CC34CCC(c5nc(C6CC6)no5)(CC3)CC4)C(=O)C34CC(F)(C3)C4)c2)no1` [Example 25, N-((4-(3-cyclopropyl-1,2,4-oxadiazol-5-yl)bicyclo[2.2.2]octan-1-yl)methyl)-N-(3-(5-ethoxyisoxazol-3-yl)phenyl)-3-fluorobicyclo[1.1.1]pentane-1-carboxamide]: 87 nM.
As to `O=C(C1CC(C(F)F)C1)N(CC12CCC(c3nc(C4CC4)no3)(CC1)OC2)c1cccc(-c2nc(C3CC3)no2)c1` (centres unmarked) [Example 198, N-((1-(3-cyclopropyl-1,2,4-oxadiazol-5-yl)-2-oxabicyclo[2.2.2]octan-4-yl)methyl)-N-(3-(3-cyclopropyl-1,2,4-oxadiazol-5-yl)phenyl)-3-(difluoromethyl)cyclobutane-1-carboxamide], the EC50 came to 909 nM.
Compound `Cc1cnc(C23CCC(CN(C(=O)C4CCC(F)(F)C4)c4cccc(-c5nc(C6CC6)no5)c4)(CC2)CC3)o1` (centres unmarked) [Example 39, N-(3-(3-cyclopropyl-1,2,4-oxadiazol-5-yl)phenyl)-3,3-difluoro-N-((4-(5-methyloxazol-2-yl)bicyclo[2.2.2]octan-1-yl)methyl)cyclopentane-1-carboxamide] displayed an EC50 of 308 nM.
Regarding `Cn1c(-c2cccc(N(CC34CCC(c5nc(C6CC6)no5)(CC3)CC4)C(=O)C34CC(F)(C3)C4)c2)nnc1C1CC1` [Example 132, N-((4-(3-cyclopropyl-1,2,4-oxadiazol-5-yl)bicyclo[2.2.2]octan-1-yl)methyl)-N-(3-(5-cyclopropyl-4-methyl-4H-1,2,4-triazol-3-yl)phenyl)-3-fluorobicyclo[1.1.1]pentane-1-carboxamide], a half-maximal response (EC50) required 4410 nM.
`CCc1noc(-c2cccc(N(CC34CCC(c5nc(C6CC6)no5)(CC3)CC4)C(=O)C34CC(F)(C3)C4)c2)n1` [Example 6, N-((4-(3-cyclopropyl-1,2,4-oxadiazol-5-yl)bicyclo[2.2.2]octan-1-yl)methyl)-N-(3-(3-ethyl-1,2,4-oxadiazol-5-yl)phenyl)-3-fluorobicyclo[1.1.1]pentane-1-carboxamide] registered an EC50 of 135 nM.
The same measure for `CC(C)(O)c1nc(-c2cccc(N(CC34CCC(c5nc(C6CC6)no5)(CC3)CC4)C(=O)C34CC(F)(C3)C4)c2)cs1` [Example 31, N-((4-(3-cyclopropyl-1,2,4-oxadiazol-5-yl)bicyclo[2.2.2]octan-1-yl)methyl)-3-fluoro-N-(3-(2-(2-hydroxypropan-2-yl)thiazol-4-yl)phenyl)bicyclo[1.1.1]pentane-1-carboxamide]: 260 nM.
In the case of `O=C(N(CC12CCC(c3nnc(C4CC4)o3)(CC1)CC2)c1cccc(-c2nc(C3CC3)no2)c1)C12CC(F)(C1)C2` [Example 137, N-(3-(3-cyclopropyl-1,2,4-oxadiazol-5-yl)phenyl)-N-((4-(5-cyclopropyl-1,3,4-oxadiazol-2-yl)bicyclo[2.2.2]octan-1-yl)methyl)-3-fluorobicyclo[1.1.1]pentane-1-carboxamide], it took 43 nM to reach a half-maximal effect (EC50).
The compound `CC(C)(C)c1nc(-c2cccc(N(CC34CCC(c5noc(C(C)(C)C)n5)(CC3)CC4)C(=O)C34CC(F)(C3)C4)c2)no1` [Example 183, N-((4-(5-(tert-butyl)-1,2,4-oxadiazol-3-yl)bicyclo[2.2.2]octan-1-yl)methyl)-N-(3-(5-(tert-butyl)-1,2,4-oxadiazol-3-yl)phenyl)-3-fluorobicyclo[1.1.1]pentane-1-carboxamide] showed an EC50 of 18 nM.
Compound `CC(C)c1nc(-c2cccc(N(CC34CCC(c5cc(C6CC6)nn5C)(CC3)CC4)C(=O)C34CC(F)(C3)C4)c2)no1` [Example 163, N-((4-(3-cyclopropyl-1-methyl-1H-pyrazol-5-yl)bicyclo[2.2.2]octan-1-yl)methyl)-3-fluoro-N-(3-(5-isopropyl-1,2,4-oxadiazol-3-yl)phenyl)bicyclo[1.1.1]pentane-1-carboxamide] returned an EC50 of 156 nM.
Next, `CC(C)(C)c1nc(C23CCC(CN(C(=O)C45CC(F)(C4)C5)c4cccc(-c5noc(C6(C)CC6)n5)c4)(CC2)CC3)no1` [Example 177, N-((4-(5-(tert-butyl)-1,2,4-oxadiazol-3-yl)bicyclo[2.2.2]octan-1-yl)methyl)-3-fluoro-N-(3-(5-(1-methylcyclopropyl)-1,2,4-oxadiazol-3-yl)phenyl)bicyclo[1.1.1]pentane-1-carboxamide]: 33 nM; `O=C(C1CC(F)(F)C1)N(CC12CCC(c3nnc(C4CC4)o3)(CC1)CC2)c1cccc(-c2nc(C3CC3)no2)c1` [Example 138, N-(3-(3-cyclopropyl-1,2,4-oxadiazol-5-yl)phenyl)-N-((4-(5-cyclopropyl-1,3,4-oxadiazol-2-yl)bicyclo[2.2.2]octan-1-yl)methyl)-3,3-difluorocyclobutane-1-carboxamide]: 158 nM; `Cn1nc(C2CC2)cc1C12CCC(CN(C(=O)C34CC(F)(C3)C4)c3cccc(-c4nc(C5CC5)no4)c3)(CC1)CC2` [Example 126, N-(3-(3-cyclopropyl-1,2,4-oxadiazol-5-yl)phenyl)-N-((4-(3-cyclopropyl-1-methyl-1H-pyrazol-5-yl)bicyclo[2.2.2]octan-1-yl)methyl)-3-fluorobicyclo[1.1.1]pentane-1-carboxamide]: 87 nM.
`Cc1cc(C23CCC(CN(C(=O)C45CC(F)(C4)C5)c4cccc(-c5nc(C6CC6)no5)c4)(CC2)CC3)ccn1` [Example 32, N-(3-(3-cyclopropyl-1,2,4-oxadiazol-5-yl)phenyl)-3-fluoro-N-((4-(2-methylpyridin-4-yl)bicyclo[2.2.2]octan-1-yl)methyl)bicyclo[1.1.1]pentane-1-carboxamide] registered an EC50 of 756 nM. Against the preceding compound, the EC50 is about 8.7-fold higher.
Next, `COc1cc(-c2cccc(N(CC34CCC(c5nc(C6CCOCC6)no5)(CC3)CC4)C(=O)C34CC(F)(C3)C4)c2)ccn1` [Example 227, 3-Fluoro-N-(3-(2-methoxypyridin-4-yl)phenyl)-N-((4-(3-(tetrahydro-2H-pyran-4-yl)-1,2,4-oxadiazol-5-yl)bicyclo[2.2.2]octan-1-yl)methyl)bicyclo[1.1.1]pentane-1-carboxamide]: 377 nM.

For the origin of these results see patent publication US11254663B2 (BRISTOL-MYERS SQUIBB COMPANY, priority 2019, dated 2022).
